{"source": "patent US10617710B2", "about": "“Agent for sedating response to external stimulation in skin and method for sedating that response” (Shiseido Company, Ltd, priority 2014, dated 2020)", "test_system": "CD39 gene expression", "assay": "CD39 expression promoting effect in human Langerhans cell-like cells (THP-1) under dexamethasone stress, RT-PCR", "assay_type": "cell-based", "conditions": "THP-1 cells, 10 nM dexamethasone added, versus dexamethasone non-addition group", "procedure": "THP-1 cells (American Type Culture Collection, VA, USA) were used as a substitute for human Langerhans cells. Approximately 200,000 THP-1 cells were cultured to confluence in RPMI1640 medium containing 10% FBS. Following culturing, stress hormone in the form of 10 nM dexamethasone was added followed by the respective addition of 0.1% polyoxyethylene (POE) 14/polyoxypropylene (POP) 7 random copolymer dimethyl ether (A), 0.01% of a 2% aqueous solution of sodium carboxymethyl-beta glucan (CM-Glucan, Mibelle Biochemistry) (B) and 0.1% rosewater (Bulgaria Rose Water, Toyotama International) (C). Moreover, a three-type mixture group (ABC) was added that incorporated one-third each of all three components. After culturing for 24 hours after addition, RNA was extracted using Isogen (Wako Pure Chemical Industries) followed by synthesis of cDNA using Superscript III and random primers (Invitrogen). RT-PCR was carried out with the Prism 7900HT (ABI) using SYBR Green (Invitrogen) and the primers indicated below.\nDuring this RT-PCR, ribosomal protein S9 was used as normalization factor."}
{"smiles": "C[C@@H]1C[C@H]2[C@@H]3CCC4=CC(=O)C=C[C@]4(C)[C@@]3(F)[C@@H](O)C[C@]2(C)[C@@]1(O)C(=O)CO", "note": "[dexamethasone]", "values": [{"measurement": "CD39 gene expression level (RT-PCR, normalized to ribosomal protein S9)", "result": "expression of CD39 decreased"}]}
